Results reported in patent US10513521B2, “Compositions and methods for inhibiting BMP” (The Brigham and Women's Hospital, Inc., priority 2014, dated 2019).

Legend:
ALK4 = molecular target: T1, ALK4 (Homo sapiens, UniProt P36896); experiment: TR-FRET enzymatic ALK kinase assay, ALK4
T1 sequence (P36896 24-505): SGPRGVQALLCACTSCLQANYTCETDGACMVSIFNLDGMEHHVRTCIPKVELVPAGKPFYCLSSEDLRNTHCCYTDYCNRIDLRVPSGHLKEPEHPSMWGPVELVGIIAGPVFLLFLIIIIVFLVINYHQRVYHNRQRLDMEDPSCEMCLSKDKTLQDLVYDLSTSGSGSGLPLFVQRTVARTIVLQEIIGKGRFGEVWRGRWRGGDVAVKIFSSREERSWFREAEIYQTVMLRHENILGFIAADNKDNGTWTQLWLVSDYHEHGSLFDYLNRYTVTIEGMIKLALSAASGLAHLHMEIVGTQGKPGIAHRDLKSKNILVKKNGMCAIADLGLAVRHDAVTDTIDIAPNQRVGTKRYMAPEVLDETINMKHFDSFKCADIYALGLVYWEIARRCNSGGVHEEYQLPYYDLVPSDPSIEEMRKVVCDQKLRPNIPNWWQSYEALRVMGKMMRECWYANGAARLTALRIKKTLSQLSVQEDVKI
Description: (§1) Briefly, the ALKs enzymatic assay was initiated by dispense 2.5 μl enzyme in 1× kinase reaction buffer. The assay plate was then added with compounds followed by incubation at room temperature for 10 minutes. Then 2.5 μl/well substrate was added.

ALK6 = ALK6 (Homo sapiens, UniProt O00238); experiment: TR-FRET enzymatic ALK kinase assay, ALK6
Description: as §1

ALK3 = ALK3 (Homo sapiens, UniProt P36894); experiment: TR-FRET enzymatic ALK kinase assay, ALK3
Description: as §1

ALK1 = ALK1 (Homo sapiens, UniProt P37023); experiment: TR-FRET enzymatic ALK kinase assay, ALK1
Description: as §1

ALK5 = molecular target: T2, ALK5 (Homo sapiens, UniProt P36897); experiment: TR-FRET enzymatic ALK kinase assay, ALK5
T2 sequence (P36897 34-503): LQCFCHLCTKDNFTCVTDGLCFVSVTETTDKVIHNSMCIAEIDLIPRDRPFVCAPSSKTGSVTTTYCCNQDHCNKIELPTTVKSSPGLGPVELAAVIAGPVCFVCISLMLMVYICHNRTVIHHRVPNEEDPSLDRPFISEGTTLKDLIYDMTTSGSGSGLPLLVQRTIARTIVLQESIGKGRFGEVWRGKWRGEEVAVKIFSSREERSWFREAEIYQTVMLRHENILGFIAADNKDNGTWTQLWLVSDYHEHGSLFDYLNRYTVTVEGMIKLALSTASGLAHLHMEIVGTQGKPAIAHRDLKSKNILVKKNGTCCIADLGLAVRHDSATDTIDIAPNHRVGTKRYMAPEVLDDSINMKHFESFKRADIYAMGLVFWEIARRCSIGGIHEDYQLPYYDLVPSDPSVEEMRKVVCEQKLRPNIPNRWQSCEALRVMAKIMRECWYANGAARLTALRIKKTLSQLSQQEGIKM
Description: Six ALK kinase enzyme assays were developed for determination of compound activities on ALK1, ALK2, ALK3, ALK4, ALK5 and ALK6.
as §1

ALK2 = molecular target: T3, ALK2 (Homo sapiens, UniProt Q04771); experiment: TR-FRET enzymatic ALK kinase assay, ALK2
T3 sequence (Q04771 21-509): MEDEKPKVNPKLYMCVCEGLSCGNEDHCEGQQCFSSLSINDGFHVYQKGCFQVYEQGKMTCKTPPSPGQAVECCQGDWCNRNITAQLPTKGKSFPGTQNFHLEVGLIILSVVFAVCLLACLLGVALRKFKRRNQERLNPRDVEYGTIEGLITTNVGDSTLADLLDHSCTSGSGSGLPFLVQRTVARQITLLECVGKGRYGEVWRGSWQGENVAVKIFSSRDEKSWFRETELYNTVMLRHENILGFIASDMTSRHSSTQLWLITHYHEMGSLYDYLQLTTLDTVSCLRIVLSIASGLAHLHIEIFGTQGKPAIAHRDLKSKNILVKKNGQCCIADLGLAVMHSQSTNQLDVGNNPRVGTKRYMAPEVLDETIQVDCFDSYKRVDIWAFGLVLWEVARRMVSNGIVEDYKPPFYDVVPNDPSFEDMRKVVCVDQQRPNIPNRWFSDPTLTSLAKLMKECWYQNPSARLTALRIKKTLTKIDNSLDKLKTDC
Description: as §1

Chain of ALK6 (O00238 14-502): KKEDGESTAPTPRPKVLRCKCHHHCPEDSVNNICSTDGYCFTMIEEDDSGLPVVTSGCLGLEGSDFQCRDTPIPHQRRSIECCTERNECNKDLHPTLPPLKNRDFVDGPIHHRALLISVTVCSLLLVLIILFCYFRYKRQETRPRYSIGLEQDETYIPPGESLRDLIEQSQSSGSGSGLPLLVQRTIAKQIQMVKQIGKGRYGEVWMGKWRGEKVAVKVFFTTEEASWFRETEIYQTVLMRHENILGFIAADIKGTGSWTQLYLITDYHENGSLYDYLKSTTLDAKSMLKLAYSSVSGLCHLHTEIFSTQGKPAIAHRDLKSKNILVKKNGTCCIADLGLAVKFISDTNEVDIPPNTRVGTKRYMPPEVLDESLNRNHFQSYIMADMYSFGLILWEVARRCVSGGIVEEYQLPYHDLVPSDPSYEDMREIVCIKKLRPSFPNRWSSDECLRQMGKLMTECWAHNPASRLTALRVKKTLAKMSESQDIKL
Chain of ALK1 (P37023 22-503): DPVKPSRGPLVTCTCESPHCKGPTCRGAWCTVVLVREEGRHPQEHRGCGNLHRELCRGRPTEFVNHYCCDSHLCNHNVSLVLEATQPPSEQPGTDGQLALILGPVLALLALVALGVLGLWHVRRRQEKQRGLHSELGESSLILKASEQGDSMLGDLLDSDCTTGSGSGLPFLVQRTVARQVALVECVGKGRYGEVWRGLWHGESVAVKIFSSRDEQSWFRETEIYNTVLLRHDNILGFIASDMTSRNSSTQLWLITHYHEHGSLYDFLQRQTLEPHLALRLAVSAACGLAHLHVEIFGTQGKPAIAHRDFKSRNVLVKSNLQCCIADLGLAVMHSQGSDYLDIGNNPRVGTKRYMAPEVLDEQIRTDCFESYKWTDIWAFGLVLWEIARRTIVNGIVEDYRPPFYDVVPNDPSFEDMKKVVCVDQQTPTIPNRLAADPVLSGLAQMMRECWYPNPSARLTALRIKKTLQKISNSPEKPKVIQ
Chain of ALK3 (P36894 24-532): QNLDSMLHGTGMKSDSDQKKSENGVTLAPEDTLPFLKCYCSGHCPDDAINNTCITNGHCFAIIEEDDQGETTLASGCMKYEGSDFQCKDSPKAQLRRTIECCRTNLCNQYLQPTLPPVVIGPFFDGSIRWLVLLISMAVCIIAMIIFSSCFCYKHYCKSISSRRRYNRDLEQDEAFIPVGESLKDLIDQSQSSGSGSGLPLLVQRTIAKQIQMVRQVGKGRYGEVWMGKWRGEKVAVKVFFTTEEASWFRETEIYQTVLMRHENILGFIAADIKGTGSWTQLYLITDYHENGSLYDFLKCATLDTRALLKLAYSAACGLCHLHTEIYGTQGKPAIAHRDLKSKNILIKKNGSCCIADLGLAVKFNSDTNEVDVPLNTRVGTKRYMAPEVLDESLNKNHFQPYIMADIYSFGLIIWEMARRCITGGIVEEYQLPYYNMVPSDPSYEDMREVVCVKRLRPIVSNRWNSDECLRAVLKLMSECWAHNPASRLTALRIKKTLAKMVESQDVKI

| IC50 (ALK4) [nM] | IC50 (ALK6) [nM] | IC50 (ALK3) [nM] | IC50 (ALK1) [nM] | IC50 (ALK5) [nM] | IC50 (ALK2) [nM] | Compound |
| --- | --- | --- | --- | --- | --- | --- |
| > 10000 | > 10000 | 7300 | 820 | > 10000 | 140 | C[C@@H](O)c1cccc(-c2cnn3cc(-c4ccc(CCN5CCC(O)C5)cc4)cnc23)c1 (stereo partly drawn) [Compound 155, 1-(4-(3-(3-((R)-1-hydroxyethyl)phenyl)pyrazolo[1,5-a]pyrimidin-6-yl)phenethyl)pyrrolidin-3-ol] |
| > 10000 | > 10000 | 6200 | 840 | > 10000 | 160 | C[C@@H](O)c1cccc(-c2cnn3cc(-c4ccc(CCN5CCCC5)cc4)cnc23)c1 [Compound 156, (R)-1-(3-(6-(4-(2-(pyrrolidin-1-yl)ethyl)phenyl)pyrazolo[1,5-a]pyrimidin-3-yl)phenyl)ethanol] |
| > 10000 | > 10000 | 5900 | 760 | > 10000 | 120 | C[C@@H](O)c1cccc(-c2cnn3cc(-c4ccc(CCN5CCCC(O)C5)cc4)cnc23)c1 (stereo partly drawn) [Compound 157] |
| > 10000 | > 10000 | > 10000 | 2500 | > 10000 | 250 | C[C@@H](O)c1cccc(-c2cnn3cc(-c4ccc(CCN5CCOCC5)cc4)cnc23)c1 [Compound 158, (R)-1-(3-(6-(4-(2-morpholinoethyl)phenyl)pyrazolo[1,5-a]pyrimidin-3-yl)phenyl)ethanol] |
| > 10000 | > 10000 | 6100 | 1000 | > 10000 | 180 | C[C@@H](O)c1cccc(-c2cnn3cc(-c4ccc(CCN5CCC(O)CC5)cc4)cnc23)c1 [Compound 159, (R)-1-(4-(3-(3-(1-hydroxyethyl)phenyl)pyrazolo[1,5-a]pyrimidin-6-yl)phenethyl)piperidin-4-ol] |
| 8900 | > 10000 | 3300 | 1500 | > 10000 | 190 | C[C@@H](O)c1cccc(-c2cnn3cc(-c4ccc(OCCN5CCCC5)cc4)cnc23)c1 [Compound 160, (R)-1-(3-(6-(4-(2-(pyrrolidin-1-yl)ethoxy)phenyl)pyrazolo[1,5-a]pyrimidin-3-yl)phenyl)ethanol] |
| > 10000 | > 10000 | 9400 | 1600 | > 10000 | 150 | NC(c1cccc(-c2cnn3cc(-c4ccc(OCCN5CCCC5)cc4)cnc23)c1)C(F)(F)F (stereo not drawn) [Compound 161] |
| > 10000 | > 10000 | > 10000 | > 10000 | > 10000 | 8100 | NC(c1ccc(-c2cnn3cc(-c4ccc(OCCN5CCCC5)cc4)cnc23)c2ccccc12)C(F)(F)F (stereo not drawn) [Compound 162, 2,2,2-trifluoro-1-(4-(6-(4-(2-(pyrrolidin-1-yl)ethoxy)phenyl)pyrazolo[1,5-a]pyrimidin-3-yl)naphthalen-1-yl)ethanamine] |
| > 10000 | > 10000 | 1700 | 610 | > 10000 | 85 | CC(O)c1cccc(-c2cnn3cc(-c4ccc(OC5(CN6CCNCC6)CC5)cc4)cnc23)c1 (stereo not drawn) [Compound 168, 1-(3-(6-(4-(1-(piperazin-1-ylmethyl)cyclopropoxy)phenyl)pyrazolo[1,5-a]pyrimidin-3-yl)phenyl)ethanol] |
| > 10000 | 5700 | 1500 | 280 | > 10000 | 52 | CS(=O)(=O)c1cccc(-c2cnn3cc(-c4ccc(OC5(CN6CCNCC6)CC5)cc4)cnc23)c1 [Compound 169, 3-(3-(methylsulfonyl)phenyl)-6-(4-(1-(piperazin-1-ylmethyl)cyclopropoxy)phenyl)pyrazolo[1,5-a]pyrimidine] |
| > 10000 | 9600 | 1500 | 270 | > 10000 | 33 | CS(=O)(=O)c1cccc(-c2cnn3cc(-c4ccc(OC5(CN6CCCC6)CC5)cc4)cnc23)c1 [Compound 170, 3-(3-(methylsulfonyl)phenyl)-6-(4-(1-(pyrrolidin-1-ylmethyl)cyclopropoxy)phenyl)pyrazolo[1,5-a]pyrimidine] |
| > 10000 | > 10000 | 2000 | 1100 | > 10000 | 170 | CC(O)c1cccc(-c2cnn3cc(-c4ccc(CCN5CCNCC5)cc4)cnc23)c1 (stereo not drawn) [Compound 171, 1-(3-(6-(4-(2-(piperazin-1-yl)ethyl)phenyl)pyrazolo[1,5-a]pyrimidin-3-yl)phenyl)ethanol] |
| > 10000 | > 10000 | > 10000 | > 10000 | > 10000 | 1200 | CS(=O)(=O)c1cc(-c2cnn3cc(-c4ccc(CCN5CCCCC5)cc4)cnc23)cc(C(F)(F)F)c1 [Compound 172, 3-(3-(methylsulfonyl)-5-(trifluoromethyl)phenyl)-6-(4-(2-(piperidin-1-yl)ethyl)phenyl)pyrazolo[1,5-a]pyrimidine] |
| > 10000 | > 10000 | 1600 | 790 | > 10000 | 43 | CC(O)c1cccc(-c2cnn3cc(-c4ccc(OC5(CN6CCC(O)CC6)CC5)cc4)cnc23)c1 (stereo not drawn) [Compound 174] |
| > 10000 | > 10000 | 2400 | 720 | > 10000 | 68 | C[S+](=O)([O-])c1cccc(-c2cnn3cc(-c4ccc(OC5(CN6CC(F)(F)C6)CC5)cc4)cnc23)c1 [Compound 176, 6-(4-(1-((3,3-difluoroazetidin-1-yl)methyl)cyclopropoxy)phenyl)-3-(3-(methylsulfonyl)phenyl)pyrazolo[1,5-a]pyrimidine] |
| > 10000 | > 10000 | 890 | 770 | > 10000 | 45 | CC(O)c1cccc(-c2cnn3cc(-c4ccc(OC5(CN6CCOCC6)CC5)cc4)cnc23)c1 (stereo not drawn) [Compound 177, 1-(3-(6-(4-(1-(morpholinomethyl)cyclopropoxy)phenyl)pyrazolo[1,5-a]pyrimidin-3-yl)phenyl)ethanol] |
| > 10000 | > 10000 | > 10000 | > 10000 | > 10000 | 92 | C[S+](=O)([O-])c1cccc(-c2cnn3cc(-c4ccc(CCN5CCC6(CC5)CNC6)cc4)cnc23)c1 [Compound 178, 6-(4-(2-(2,7-diazaspiro[3.5]nonan-7-yl)ethyl)phenyl)-3-(3-(methylsulfonyl)phenyl)pyrazolo[1,5-a]pyrimidine] |
| > 10000 | 3600 | 750 | 380 | > 10000 | 31 | C[S+](=O)([O-])c1cccc(-c2cnn3cc(-c4ccc(OC5(CN6CCOCC6)CC5)cc4)cnc23)c1 [Compound 179, 4-((1-(4-(3-(3-(methylsulfonyl)phenyl)pyrazolo[1,5-a]pyrimidin-6-yl)phenoxy)cyclopropyl)methyl)morpholine] |
| > 10000 | > 10000 | 3800 | 1300 | > 10000 | 62 | NC(c1cccc(-c2cnn3cc(-c4ccc(OC5(CN6CCC(O)CC6)CC5)cc4)cnc23)c1)C(F)(F)F (stereo not drawn) [Compound 180, 1-((1-(4-(3-(3-(1-amino-2,2,2-trifluoroethyl)phenyl)pyrazolo[1,5-a]pyrimidin-6-yl)phenoxy)cyclopropyl)methyl)piperidin-4-ol] |
